Source: publication PMC7288058, “Modulating the Properties of Fe(III) Macrocyclic MRI Contrast Agents by Appending Sulfonate or Hydroxyl Groups” (Molecules, 2020)
Where “and” joins values, the source holds several entries; their conditions need not be identical. Identical values can stand only once.

Experiments:
[1] = target: T1, human serum albumin (HSA) (Homo sapiens, UniProt P02768); experiment: Binding to human serum albumin by ultrafiltration / ICP-MS; assay type: in vitro ADME; conditions: 0.4 mM complex, HSA 4.5% (w/v) (0.7 mM), 20 mM HEPES pH 7.4, 100 mM NaCl, 37 °C, 20 min
T1 construct: Albumin from human serum (fatty acid free) was purchased from Sigma-Aldrich; purchased Sigma-Aldrich; host or cells: purified from human serum
T1 sequence (P02768 25-609): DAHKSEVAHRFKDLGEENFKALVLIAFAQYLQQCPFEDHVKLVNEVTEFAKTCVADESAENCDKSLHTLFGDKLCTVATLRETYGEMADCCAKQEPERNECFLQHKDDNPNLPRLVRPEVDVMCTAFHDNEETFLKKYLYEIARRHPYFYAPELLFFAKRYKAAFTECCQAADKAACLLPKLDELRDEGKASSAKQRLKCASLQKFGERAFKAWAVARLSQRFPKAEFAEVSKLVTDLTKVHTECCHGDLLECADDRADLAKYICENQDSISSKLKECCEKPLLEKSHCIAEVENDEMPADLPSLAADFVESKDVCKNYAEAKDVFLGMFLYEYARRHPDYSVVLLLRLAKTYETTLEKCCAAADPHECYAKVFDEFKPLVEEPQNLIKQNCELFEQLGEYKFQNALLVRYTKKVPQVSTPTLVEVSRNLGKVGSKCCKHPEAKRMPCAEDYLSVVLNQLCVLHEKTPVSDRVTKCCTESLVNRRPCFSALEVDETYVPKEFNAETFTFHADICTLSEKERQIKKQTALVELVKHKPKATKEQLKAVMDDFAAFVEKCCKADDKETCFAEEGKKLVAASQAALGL
Description: Binding of the Fe(III) complexes to human serum albumin (HSA) was studied by using ultrafiltration across a MW 5000 cutoff membrane. The solutions containing HEPES buffer (pH 7.4) and salt NaCl were incubated at 37 °C for 20 min. Solutions contained 0.4 mM Fe(III) complex and 4.5 % (w/v) HSA (0.7 mM). The binding percentages were measured by using ICP-MS to analyze the Fe concentration in the unbound complex solutions after HSA incubation (Table 1). The protein binding for Fe(L3)(OH2) was higher (75%) than for Fe(L1)(OH2) (37%) or Fe(L2) (11%).
The molecular weight of 66,435 Da was used to determine the molar concentrations of HSA. Fe(III) complex (0.400 mM) solutions were incubated with 4.5% (w/v) HSA in 0.100 M NaCl and 20.0 mM HEPES buffer (pH 7.4). All solutions were incubated at 37 °C for 20 min [42]. Aliquots (0.300 mL) were placed in ultra-centrifugal filter units with a 5-kDa membrane and centrifuged at 3500× g for 10 min. The filtrates were used to determine Fe concentration from digested unbound Fe(III) complexes by using ICP-MS.

[2] = Cyclic voltammetry, Fe(III)/Fe(II) electrode potential; assay type: physicochemical; conditions: for electrode potential (E1/2) vs. Ag/AgCl: 0.10 M potassium chloride
Description: Cyclic voltammetry experiments were carried out in aqueous solutions containing 0.10 M potassium chloride at acidic and neutral pH values with potassium ferricyanide salt in aqueous solution as a reference (Figure S8, Supplementary Materials). […] The electrode potential (E1/2) of Fe(L1)(OH2) at pH 3 was 227 mV vs. Ag/AgCl (515 mV vs. normal hydrogen electrode, NHE) and was −209 mV vs. Ag/AgCl (79 mV vs. NHE) at pH 7. […] At pH 3 the E1/2 was estimated as 264 mV vs. Ag/AgCl (552 mV vs. NHE), and, at pH 7, it was estimated as −618 mV vs. Ag/AgCl (−330 mV vs. NHE). For comparison, the E1/2 of Fe(L3)(OH2) at pH 3 was reported as 112 mV vs. Ag/AgCl (400 mV vs. NHE) and, at pH 7, the value was −588 mV vs. Ag/AgCl (−300 mV vs. NHE).
Cyclic voltammetry measurements were performed in 10.0-mL aqueous solutions containing 0.100 M […] as supporting electrolyte and 1.00 mM Fe(III) complexes. A standard three-electrode cell was used with a polished glassy carbon as the working electrode, a Pt wire as the auxiliary electrode, and an Ag/AgCl (1.00 mM) reference electrode. The samples were purged with extra pure N2 gas to remove the dissolved oxygen for each measurement. Current was measured with a 10-s prescan delay between −1.5 V and 1.5 V at a sweep rate of 100 and 500 mV/s, where 1.00 mM ferrocyanide was used as a standard solution. The redox potential of Fe(II)/(III) was calculated from the anodic (Epa) and cathodic (Epc) potentials, as EFe(II)/(III) = (Epa + Epc)/2 in reference to Ag/AgCl (1.00 mM), then converted to a value referenced to the normal hydrogen electrode (NHE).

C[C@H]([O-])CN1CCN(C[C@H](C)O)CCN(C[C@H](C)O)CC1.[Fe+3] [Fe(L2)]
HSA Binding (%) [1]: 11% and 11.2 ± 2.8%
electrode potential (E1/2) vs. Ag/AgCl ([2]; pH 3, aqueous): ~264 mV
electrode potential (E1/2) vs. NHE ([2]; pH 3, converted from Ag/AgCl): ~552 mV
electrode potential (E1/2) vs. Ag/AgCl ([2]; pH 7, aqueous): ~−618 mV
electrode potential (E1/2) vs. NHE ([2]; pH 7, converted from Ag/AgCl): ~−330 mV

C[C@H]([O-])CN1CCN(CCCS(=O)(=O)[O-])CCN(C[C@H](C)O)CC1.O.[Fe+3] [Fe(L1)(OH2)]
HSA Binding (%) [1]: 37% and 36.8 ± 0.2%
electrode potential (E1/2) vs. Ag/AgCl ([2]; pH 3, aqueous): 227 mV
electrode potential (E1/2) vs. NHE ([2]; pH 3, converted from Ag/AgCl): 515 mV
electrode potential (E1/2) vs. Ag/AgCl ([2]; pH 7, aqueous): −209 mV
electrode potential (E1/2) vs. NHE ([2]; pH 7, converted from Ag/AgCl): 79 mV
